Measurements from ChEMBL document CHEMBL1949583, “Credneramides A and B: neuromodulatory phenethylamine and isopentylamine derivatives of a vinyl chloride-containing fatty acid from cf. Trichodesmium sp. nov” (J Nat Prod, 2012).

Assay: Neuromodulatory activity in mouse cerebrocortical neurons assessed as inhibition of calcium oscillation
Format: functional
Settings: Cerebral cortex neuron

IC50	SMILES
4 µM	CCC/C(=C\Cl)C/C=C/CCC(=O)NCCc1ccccc1 [CREDNERAMIDE A]
3.9 µM	CCC/C(=C\Cl)C/C=C/CCC(=O)NCCC(C)C [CREDNERAMIDE B]
8.2 µM	CCC/C(=C\Cl)C/C=C/CCC(=O)O [CREDNERIC ACID]
